Test results from patent US9695179B2, “Methods and compositions for inhibition of bromodomain-containing proteins” (CONVERGENE LLC, priority 2013, dated 2017).

How the values were obtained:
[1] = test system: MM1.S Cells (Multiple Myeloma); test: In vitro cell viability, MM1.S; assay type: cell-based; conditions: Homo sapiens
Procedure: [Worded in the source for another cell line; this cell line is reported under the same test.] (§1) MV4-11 acute myeloid leukemia cells (American Type Culture Collection, Manassas, Va.) were added to 96-well clear bottom assay plates containing RPMI-1640 medium supplemented with 10% fetal bovine serum (FBS) at approximately 30,000 cells/well and incubated for 24 hours at 37° C. with 5% CO2 and 95% humidity. Control wells containing no cells were included to measure background fluorescence signal. Test compounds were dissolved at […] and diluted two-fold in DMSO to produce a working stock of compound solutions. Aliquots of the working stock solutions were subsequently diluted 100-fold in basal RPMI-1640 medium which was then further diluted 10-fold to the assay plate containing the cells to provide 10 test concentrations ranging from 0.04 μM-20 μM. Following a 72-hour incubation period, viability of the cells was determined by the AlamarBlue® assay (Life Technologies, Carlsbad, Calif.) following the manufacturer's protocol. Prior to generation of dose response curves, the data were background subtracted using the no cell control values (mean+/−standard deviation) and fluorescence values versus Log10 concentration of test compounds were plotted using GraphPad Prism. The resulting sigmoidal curve was then fit to the graph and IC50 values were calculated using a 4 parameter (4PL) algorithm using the following equation: 4(PL)F(x)=(A−D)/(1+(x/c)^B+D, where A=lower asymptote (baseline response), D=upper asymptote (maximum response), C=drug concentration that provokes a response halfway between A and D, B=slope of the curve. The results for selected compounds are set forth in Table 7.

[2] = test system: MV4-11 acute myeloid leukemia cells; test: In vitro cell viability (AlamarBlue), MV4-11; assay type: cell-based; conditions: Homo sapiens, MV4-11 cells, 72-hour incubation, read-out: In Vitro Cell Viability (IC50) MV4-11 Cells (AML)
Procedure: as §1

BRD4-BD1-BD2 = BRD4-BD1-BD2 (Homo sapiens (Human), UniProt O60885); test: AlphaScreening assay, recombinant BRD4-BD1-BD2 and BET Ligand; assay type: binding; conditions: 2.5 nM BRD4-BD1-BD2, BET Ligand
Procedure: Assays were performed by AlphaScreening technology using a recombinant BRD4-BD1-BD2 and BET Ligand. The AlphaScreening signal from the assay was correlated with the amount of BET Ligand binding to the bromodomain. The compounds were diluted in 50% DMSO and 1 μl of the dilution was added to a 10 μl reaction so that the final concentration of DMSO is 5% in all of reactions. All reactions were conducted at room temperature. The 9 μl reaction mixture in BRD Assay Buffer contains 2.5 nM BRD4-BD1-BD2 and the indicated amount of the inhibitor, and the reaction mixture were incubated for 30 min followed by additional 30 min incubation after the addition of 1 μl of BET Ligand (Table 2.3.1). For the negative control (blank), 1 μl of the assay buffer was added instead of the BET Ligand. After the 30 min incubation with the BET Ligand, 20 μl of BRD Detection buffer containing 10 μg/ml Glutathione acceptor beads and 10 μg/ml Streptavidin Donor beads was added and the final 30 μl mixture was incubated for 50 min in a dark room.
AlphaScreening signal was measured using EnSpire Alpha 2390 Multilabel reader (Perkin Elmer). Binding experiments were performed in duplicate at each concentration. The AlphaScreening data were analyzed using the computer software, Graphpad Prism. In the absence of the compound, the AlphaScreening signal (At) in each data set was defined as 100% activity. In the absence of the BET Ligand, the AlphaScreening signal (Ab) in each data set was defined as 0% activity. The percent activity in the presence of each compound was calculated according to the following equation: % activity=[(A−Ab)/(At−Ab)]×100, where A=the AlphaScreening signal in the presence of the compound, Ab=the AlphaScreening signal in the absence of the BET Ligand, and At=the AlphaScreening signal in the absence of the compound. The percent inhibition was calculated for certain compounds according to the following equation: % inhibition=100−% activity.

IC50 [1]	IC50 [2]	inhibition at 10 µM (BRD4-BD1-BD2)	SMILES
2.53 µM	1.49 µM	–	COc1ccccc1/C=C/C(=O)c1c(-c2ccccc2)c2cc(Cl)ccc2[nH]c1=O [Compound 5, 6-chloro-3-(3-(2-methoxyphenyl)acryloyl)-4-phenylquinolin-2(1H)-one]
31.9 µM	3.57 µM	–	COc1ccc(/C=C/C(=O)c2c(-c3ccccc3)c3cc(Cl)ccc3[nH]c2=O)cc1OC [Compound 6, 6-chloro-3-(3-(3,4-dimethoxyphenyl)acryloyl)-4-phenylquinolin-2(1H)-one]
3 µM	1.75 µM	–	COc1ccc(OC)c(/C=C/C(=O)c2c(-c3ccccc3)c3cc(Br)ccc3[nH]c2=O)c1 [Compound 10, 6-bromo-3-(3-(2,5-dimethoxyphenyl)acryloyl)-4-phenylquinolin-2(1H)-one]
4.21 µM	0.97 µM	–	O=C(/C=C/c1ccccc1)c1c(-c2ccncc2)c2cc(Cl)ccc2[nH]c1=O [Compound 11, 6-chloro-3-cinnamoyl-4-(pyridin-4-yl)quinolin-2(1H)-one]
2.44 µM	1.04 µM	–	Cc1ccccc1/C=C/C(=O)c1c(-c2cccnc2)c2cc(Cl)ccc2[nH]c1=O [Compound 12, 6-chloro-4-(pyridin-3-yl)-3-(3-o-tolylacryloyl)quinolin-2(1H)-one]
3.1 µM	4.73 µM	–	Cc1ccccc1CNC(=O)c1c(-c2ccccc2)c2cc(Cl)ccc2[nH]c1=O [Compound 13, 6-chloro-N-(2-methylbenzyl)-2-oxo-4-phenyl-1,2-dihydroquinoline-3-carboxamide]
14.1 µM	0.71 µM	–	O=C(/C=C/c1ccccc1)c1c(-c2ccccc2)c2cc(Cl)cnc2[nH]c1=O [Compound 14, 6-chloro-3-cinnamoyl-4-phenyl-1,8-naphthyridin-2(1H)-one]
–	–	98%	COc1ccc(Cn2c(=O)c(-c3coc(C)n3)c(OS(=O)(=O)c3ccccc3)c3cc(Cl)ccc32)cc1 [drawing 651]
–	–	98%	COc1ccc(Cn2c(=O)c(-c3coc(C)n3)c(OS(=O)(=O)c3cccc4cccnc34)c3cc(Cl)ccc32)cc1 [drawing 652]
–	–	99%	COc1ccc(Cn2c(=O)c(-c3coc(C)n3)c(OS(=O)(=O)c3ccc(C)cc3)c3cc(Cl)ccc32)cc1 [drawing 653]
–	–	99%	COc1ccc(Cn2c(=O)c(-c3coc(C)n3)c(OS(=O)(=O)c3ccc(F)cc3)c3cc(Cl)ccc32)cc1 [drawing 654]
–	–	99%	COc1ccc(Cn2c(=O)c(-c3coc(C)n3)c(OS(=O)(=O)c3ccc(Cl)cc3)c3cc(Cl)ccc32)cc1 [drawing 655]
–	–	99%	COc1ccc(Cn2c(=O)c(-c3coc(C)n3)c(OS(=O)(=O)c3ccc4ccccc4c3)c3cc(Cl)ccc32)cc1 [drawing 656]
–	–	99%	COc1ccc(Cn2c(=O)c(-c3coc(C)n3)c(OS(=O)(=O)c3ccc(-c4ccccc4)cc3)c3cc(Cl)ccc32)cc1 [drawing 657]
